Values after ≈ are worked out from the molar mass of the structure shown. Where two headings read alike, the source gives them in different places.
How the values were obtained:
Format in all cases: physicochemical
[1] = Competitive slurrying; settings: for Form (competitive slurrying result) / form observed after competitive slurrying (XRPD): ca. 48 hours; for Form (competitive slurrying result): XRPD; for form observed after competitive slurrying (XRPD): ambient and 50° C., acetone, ethanol, acetonitrile
Procedure: Approximately 5 mg of each form (Form 1 and Form 4, Form 1 and Form 8, and Form 4 and Form 8) was weighed and agitated at ambient and 50° C. in minimal acetone, ethanol, diisopropyl ether (DIPE) and acetonitrile. Approximately 8 drops of each solvent was added and the samples were then agitated for ca. 48 hours, before being analyzed by XRPD. Table 9 details the conditions.

[2] = Thermodynamic solubility pH measurements; settings: for Solubility (mg/mL) / Solubility: 48 hours
Procedure: After 2 hours at 25° C., the pH of each slurry was measured and the pH was adjusted, where required. After 24 hours at 25° C., the pH of each slurry was measured and the pH was adjusted, where required. After 48 hours at 25° C., the slurries were separated by centrifugation. The solids were analyzed by XRPD, while the pH of the separated liquors were also measured.

[3] = Accelerated stability testing at 40° C./75% RH for 6 months
Procedure: Accelerated stability testing was carried out for Form 1 at 40° C./75% RH for 6 months. […] The water content was measured by KF analysis.

[4] = Long term stability testing at 25° C./60% RH
Procedure: Long term stability testing was carried out for Form 1 at 25° C./60% RH. […] The water content was measured by KF analysis.

[5] = Aqueous solubility; settings: for Solubility (mg/mL): Water; for Form: XRPD of damp solid after slurrying in Water, AXRPD: Amorphous by XRPD, but limited material for analysis; for XRPD post aqueous solubility: amorphous: Form 1 from solubility screen, Form 8: Amorphous, limited material
Procedure: (§1) Aqueous and acetone solubility was carried out using 3-10 mg of material, depending on availability, and slurrying in 150-200 μL of acetone or 300 μL of deionized water. The samples were agitated at ambient temperature then filtered by centrifugation (0.22 μm nylon filter) after ca. 24 hours and the solids analyzed by XRPD as damp solids. The filtrates were analyzed by HPLC for concentration determination. The water solubility was too low for detection using the current analytical method.

[6] = Acetone solubility; settings: for Form: XRPD of damp solid after slurrying in Acetone, *Small amount of material analyzed; for Solubility / solid form after slurrying in acetone (XRPD) / solubility at 24 h: acetone; for solubility at 24 h: organic solvent or mixture, thermodynamic from solid; for Acetone solubility: residual solid: form of residual solid, amorphous input: Form 2 residual solid with additional peaks
Procedure: as §1

[7] = Gravimetric vapor sorption (GVS); settings: for Post-GVS analysis (form): after exposure to elevated humidity; for XRPD post GVS: cell wraps: Remained | unchanged; for GVS (hygroscopicity): summary Table 11
Procedure: Approximately 10-20 mg of sample was placed into a mesh vapor sorption balance pan and loaded into an IGASorp Moisture Sorption Analyzer balance by Hiden Analytical. The sample was subjected to a ramping profile from 40-90% relative humidity (RH) at 10% increments, maintaining the sample at each step until a stable weight had been achieved (98% step completion). After completion of the sorption cycle, the sample was dried using the same procedure to 0% RH, and finally taken back to the starting point of 40% RH. Two cycles were performed. The weight change during the sorption/desorption cycles were plotted, allowing for the hygroscopic nature of the sample to be determined.

[8] = 7 day stability testing, open vials at 40° C./75% RH, ambient and 80° C.; settings: for Purity after 1 week (%) / area % purity and form changes after 1 week: open vials; for T = 0 purity (%): T = 0, before storage; for area % purity and form changes after 1 week: ambient, 40° C./75% RH and 80° C.; for Stability testing: cell wraps: No drop in purity or change in form
[9] = ambient temperature, ca. 24 hours
[10] = deionized water, ambient temperature, ca. 24 hours
[11] = summary Table 11, HPLC of filtrate

## O=C(c1ccc(Oc2ccccc2)cc1Cl)c1c[nH]c2ncnc(N[C@@H]3CC[C@@H](CO)OC3)c12 [1 and 4]
[1]; DIPE, 50° C.
  Form (competitive slurrying result): Form 1
[1]; Ethanol, 50° C.
  Form (competitive slurrying result): Form 1
[1]; Ethanol, Ambient
  Form (competitive slurrying result): Form 1

## O=C(c1ccc(Oc2ccccc2)cc1Cl)c1c[nH]c2ncnc(N[C@@H]3CC[C@@H](CO)OC3)c12 [1 and 8]
[1]; DIPE, 50° C.
  Form (competitive slurrying result): Form 1
[1]; Ethanol, 50° C.
  Form (competitive slurrying result): Form 1
[1]; Ethanol, Ambient
  Form (competitive slurrying result): Form 1

## O=C(c1ccc(Oc2ccccc2)cc1Cl)c1c[nH]c2ncnc(N[C@@H]3CC[C@@H](CO)OC3)c12 [4 and 8]
[1]; DIPE, 50° C.
  Form (competitive slurrying result): Form 4
[1]; Ethanol, 50° C.
  Form (competitive slurrying result): Form 1
[1]; Ethanol, Ambient
  Form (competitive slurrying result): Form 1

## O=C(c1ccc(Oc2ccccc2)cc1Cl)c1c[nH]c2ncnc(N[C@@H]3CC[C@@H](CO)OC3)c12.O=S(=O)(O)CCS(=O)(=O)O [Edisylate Pattern 1]
[2]; Input Solvent Water
  pH - 2 Hours at 25° C.: 2.32
  pH - 24 Hours at 25° C.: 2.18
  pH - 48 Hours at 25° C.: 2.37
[2]; Input Solvent Water, 25° C.
  Solubility (mg/mL): <LOD
[2]; Input Solvent pH 1
  pH - 2 Hours at 25° C.: 0.17
  pH - 24 Hours at 25° C.: 0.70
  pH - 48 Hours at 25° C.: 1.11
[2]; Input Solvent pH 1, 25° C.
  Solubility: 0.7 mg/mL
[2]; Input Solvent pH 4.5
  pH - 2 Hours at 25° C.: 4.40
  pH - 24 Hours at 25° C.: 4.29
  pH - 48 Hours at 25° C.: 4.22
[2]; Input Solvent pH 4.5, 25° C.
  Solubility (mg/mL): <LOD
[2]; Input Solvent pH 6.5
  pH - 2 Hours at 25° C.: 6.44
  pH - 24 Hours at 25° C.: 6.03
  pH - 48 Hours at 25° C.: 5.68
[2]; Input Solvent pH 6.5, 25° C.
  Solubility: <0.1 mg/mL

## O=C(c1ccc(Oc2ccccc2)cc1Cl)c1c[nH]c2ncnc(N[C@@H]3CC[C@@H](CO)OC3)c12 [Form 1 and Form 4]
[1]; DIPE
  form observed after competitive slurrying (XRPD): Form 1 was the dominant form

## O=C(c1ccc(Oc2ccccc2)cc1Cl)c1c[nH]c2ncnc(N[C@@H]3CC[C@@H](CO)OC3)c12 [Form 1 and Form 8]
[1]; DIPE
  form observed after competitive slurrying (XRPD): Form 1 was the dominant form

## O=C(c1ccc(Oc2ccccc2)cc1Cl)c1c[nH]c2ncnc(N[C@@H]3CC[C@@H](CO)OC3)c12 [Form 1, (2-chloro-4-phenoxyphenyl)(4-(((3R,6S)-6-(hydroxymethyl)tetrahydro-2H-pyran-3-yl)amino)-7H-pyrrolo[2,3-d]pyrimidin-5-yl)methanone]
[3]; 0 months
  Chemical Purity (% Area): 98.9 % Area
  Crystallinity (XRPD): Form 1
  Water Content (KF) (%): 0.16%
[3]; 1 month
  Chemical Purity (% Area): 98.8 % Area
  Water Content (KF) (%): 0.36%
[3]; 3 months
  Chemical Purity (% Area): 98.8 % Area
  Water Content (KF) (%): 0.53%
[3]; 6 months
  Chemical Purity (% Area): 98.9 % Area
  Crystallinity (XRPD): Form 1
  Water Content (KF) (%): 0.57%
  area % purity and form changes, accelerated storage: no decrease in area % purity or form changes
[4]
  area % purity and form changes, long term storage: no decrease in area % purity or form changes
[4]; 0 months
  Chemical Purity (% AUC): 98.9 % AUC
  Crystallinity (XRPD): Form 1
  Water Content (KF) (%): 0.16%
[4]; 1 month
  Chemical Purity (% AUC): 98.8 % AUC
  Water Content (KF) (%): 0.28%
[4]; 3 months
  Chemical Purity (% AUC): 98.8 % AUC
  Water Content (KF) (%): 0.41%
[4]; 6 months
  Chemical Purity (% AUC): 98.9 % AUC
  Crystallinity (XRPD): Form 1
  Water Content (KF) (%): 0.47%
[4]; 9 months
  Chemical Purity (% AUC): 98.9 % AUC
  Water Content (KF) (%): 0.29%
[4]; 12 months
  Chemical Purity (% AUC): 98.8 % AUC
  Crystallinity (XRPD): Form 1
  Water Content (KF) (%): 0.46%
[4]; 18 months
  Chemical Purity (% AUC): 99.0 % AUC
  Water Content (KF) (%): 0.49%
[4]; 24 months
  Chemical Purity (% AUC): 98.9 % AUC
  Crystallinity (XRPD): Form 1
  Water Content (KF) (%): 0.37%
[1]; under the conditions assessed
  relative stability of the form: thermodynamically more stable form
[5]; [9]
  Solubility (mg/mL): API not detected
[5]
  Form: Form 1
  XRPD post aqueous solubility: Form 1
[5]; [10]
  aqueous solubility: not soluble
[5]; [11]
  aqueous solubility: API not detected
[6]
  Form: Form 2*
  Acetone solubility: residual solid: (Form 2 residual
[6]; [9]
  Solubility: 12.3 mg/mL (≈ 25.7 mM)
  solid form after slurrying in acetone (XRPD): conversion to Form 2
[6]; summary Table 11, read-out: Acetone solubility
  solubility at 24 h: 12.3 mg/mL (≈ 25.7 mM)
[7]
  hygroscopic nature by GVS: non-hygroscopic
  Post-GVS analysis (form): remain Form 1
  XRPD post GVS: Remained
  GVS (hygroscopicity): <0.2% uptake
[7]; at 90% RH
  uptake by GVS: < 0.2%
[8]; 40° C./75% RH
  Purity after 1 week (%): 99.4%
[8]; 80° C.
  Purity after 1 week (%): 99.4%
[8]; Ambient
  Purity after 1 week (%): 99.3%
[8]
  T = 0 purity (%): 99.3%
  area % purity and form changes after 1 week: no decrease in area % purity or form changes
  Stability testing: No drop in purity

## O=C(c1ccc(Oc2ccccc2)cc1Cl)c1c[nH]c2ncnc(N[C@@H]3CC[C@@H](CO)OC3)c12 [Form 4 and Form 8]
[1]; DIPE
  form observed after competitive slurrying (XRPD): Form 1 and Form 2 mixtures, pure Form 1, pure Form 4 and pure Form 2

## O=C(c1ccc(Oc2ccccc2)cc1Cl)c1c[nH]c2ncnc(N[C@@H]3CC[C@@H](CO)OC3)c12 [Form 4, (2-chloro-4-phenoxyphenyl)(4-(((3R,6S)-6-(hydroxymethyl)tetrahydro-2H-pyran-3-yl)amino)-7H-pyrrolo[2,3-d]pyrimidin-5-yl)methanone]
[5]; [9]
  Solubility (mg/mL): API not detected
[5]
  Form: Form 4
  XRPD post aqueous solubility: Form 4
[5]; [10]
  aqueous solubility: not soluble
[5]; [11]
  aqueous solubility: API not detected
[6]
  Form: Form 1
  Acetone solubility: residual solid: (Form 1 residual
[6]; [9]
  Solubility: 15.1 mg/mL (≈ 31.5 mM)
  solid form after slurrying in acetone (XRPD): converted to the Form 1 polymorph
[6]; summary Table 11
  Acetone solubility: 15.1 mg/mL
[7]
  hygroscopic nature by GVS: non-hygroscopic
  Post-GVS analysis (form): remain Form 4
  XRPD post GVS: Remained
  GVS (hygroscopicity): 0.4% uptake
[7]; at 90% RH
  uptake by GVS: 0.4%
[8]; 40° C./75% RH
  Purity after 1 week (%): 98.9%
[8]; 80° C.
  Purity after 1 week (%): 98.9%
[8]; Ambient
  Purity after 1 week (%): 98.9%
[8]
  T = 0 purity (%): 98.8%
  area % purity and form changes after 1 week: no decrease in area % purity or form changes
  Stability testing: No drop in purity

## O=C(c1ccc(Oc2ccccc2)cc1Cl)c1c[nH]c2ncnc(N[C@@H]3CC[C@@H](CO)OC3)c12 [Form 8, (2-chloro-4-phenoxyphenyl)(4-(((3R,6S)-6-(hydroxymethyl)tetrahydro-2H-pyran-3-yl)amino)-7H-pyrrolo[2,3-d]pyrimidin-5-yl)methanone]
[5]; [9]
  Solubility (mg/mL): API not detected
[5]
  Form: AXRPD
  XRPD post aqueous solubility: Amorphous,
[5]; [10]
  aqueous solubility: not soluble
[5]; [11]
  aqueous solubility: API not detected
[6]
  Form: Form 2*
  Acetone solubility: residual solid: (Form 2 residual
[6]; [9]
  solid form after slurrying in acetone (XRPD): conversion to Form 2
[6]; Acetone, ambient temperature, ca. 24 hours, read-out: Solubility
  solubility at 24 h: 11.5 mg/mL (≈ 24 mM)
[6]; summary Table 11
  Acetone solubility: 11.5 mg/mL
[7]
  hygroscopic nature by GVS: non-hygroscopic
  Post-GVS analysis (form): remain Form 8
  XRPD post GVS: Remained
  GVS (hygroscopicity): 0.8% uptake
[7]; at 90% RH, first cycle
  uptake by GVS, first cycle: < 0.3%
[7]; at 90% RH, second cycle
  uptake by GVS, second cycle: 0.8%
[8]; 40° C./75% RH
  Purity after 1 week (%): 99.0%
[8]; 80° C.
  Purity after 1 week (%): 99.0%
[8]; Ambient
  Purity after 1 week (%): 99.0%
[8]
  T = 0 purity (%): 99.0%
  area % purity and form changes after 1 week: no decrease in area % purity or form changes

## O=C(c1ccc(Oc2ccccc2)cc1Cl)c1c[nH]c2ncnc(N[C@@H]3CC[C@@H](CO)OC3)c12 [Form 11, (2-chloro-4-phenoxyphenyl)(4-(((3R,6S)-6-(hydroxymethyl)tetrahydro-2H-pyran-3-yl)amino)-7H-pyrrolo[2,3-d]pyrimidin-5-yl)methanone]
[7]
  hygroscopic nature by GVS: non-hygroscopic

— US10975087B2, “Solid forms of tetrahydropyranyl amino-pyrrolopyrimidinone compounds” (ArQule, Inc., priority 2018, dated 2021)
